SMILES strings stand for the structures.

The experiment relates to S protein monomer. The experiment in a line: MST binding to RED labelled S protein monomer in 50% negative human serum (FIGS. 4, 7, 8, 10, 12). Particulars: 20 nM S protein monomer, ligand 0.5 µM - 0.2 nM arbitrary units, PBS 0.05% Tween 20, 50% negative human serum. Also on record: species or system SARS-CoV-2.

`Cn1c(=O)c2c(ncn2C)n(C)c1=O` [Coffein, caffeine]: the “binding to S protein monomer detected by MST” value (“binding” below) was “A binding could be detected”.

As for `O=C[C@H](O)[C@@H](O)[C@@H](O)[C@H](O)CO` [D+Galactose, D-Galactose], the “binding” value is reported as “A binding could be detected”.

`O=C[C@H](O)[C@@H](O)[C@@H](O)CO` [L+Arabinose, L-Arabinose]: the “binding” value is “No binding could be detected”.

Values taken from US20230346824A1, “MEANS AND METHODS OF PREVENTING AND TREATING INFECTIONS” (SolyPlus GmbH, priority 2020, published 2023).
